Experimental findings from patent publication US20160263221A1, “MULTI-RESPONSIVE TARGETING DRUG DELIVERY SYSTEMS FOR CONTROLLED-RELEASE PHARMACEUTICAL FORMULATION” (priority 2013, published 2016) are described below.

The subject of this experiment is HeLa tumor. As to the kind of experiment: therapeutic efficacy in HeLa tumor bearing SCID mice, volume of cancer as a function of time. The format is in vivo. The conditions noted are these: FIG. 6. An excerpt:
The inventors determine the therapeutic efficacy of the multi-responsive targeting nano-containers of the present invention using HeLa tumor bearing SCID mice and monitor the volume of cancer as a function of time.

In the case of `COc1cccc2c1C(=O)c1c(O)c3c(c(O)c1C2=O)C[C@@](O)(C(=O)CO)C[C@@H]3O[C@H]1C[C@H](N)[C@H](O)[C@H](C)O1` [Doxorubicin, doxorubicin], the “volume of the cancer as a function of time” value is listed as “the volume of the cancer increases with time”.
